Values quoted from earlier work as cited in patent US5691307A, “O^6 -substituted guanine compositions and methods for depleting O^6” (The United States of America as represented by the …, priority 1994, dated 1997).
“Also recorded” adds a separate entry of the source.

Tests used:
[1] = test system: D245MG, a human glioma xenograft; details: sc D245MG, cited from earlier work
[2] = test system: malignant glioma cells (SF767); details: SF767, in vitro; cited from earlier work
[3] = test system: intracranial (ic) xenografts of D341MED; details: athymic mice; cited from earlier work
prostate tumors = details: cited from earlier work
tumor cells = details: cited from earlier work
AGT = details: cited from earlier work
melanoma cells (M19-mel) = details: in vitro; cited from earlier work
[4] = test system: human colon cancer cells (HT29); details: HT29, in vitro; cited from earlier work
human tumor xenografts = details: nude mice bearing human tumor xenografts; cited from earlier work
[5] = test system: D341MED, a human medulloblastoma xenograft; details: sc D341MED, cited from earlier work
[6] = athymic mice; cited from earlier work
[7] = test system: AGT activity of D341MED xenograft tumors; details: i.p., sc D341MED; cited from earlier work

SMILES: Nc1nc(OCc2ccccc2)c2nc[nH]c2n1 [O^6 -benzylguanine]
- therapeutic effect, higher doses of O^6-benzylguanine ([1]; with BCNU): greater therapeutic effect
- therapeutic effect of combination regimens vs equitoxic dose of BCNU alone [1]: None of the combination regimens, however, were as effective as an equitoxic dose of BCNU alone
- therapeutic effect, O^6-benzylguanine 1 hour prior to BCNU [1]: significantly greater effect than was seen with BCNU treatment alone
- sensitivity to chloroethylating and methylating anti-tumor drugs [2]: increase the sensitivity
- survival, BCNU 1 hour after O^6-benzylguanine [3]: significantly increased survival as compared to that of control, BCNU alone, O^6 -benzylguanine alone and O^6 -benzylguanine followed 36 hours later by BCNU
- anti-tumor effect of BCNU after O^6-benzylguanine pretreatment (prostate tumors; prostate cancer): enhanced
- regression in tumor growth (prostate tumors; rats bearing prostate tumors, O^6-benzylguanine one hour prior to BCNU, or BCNU alone at equal dose): regression in tumor growth
- enhancement in the cytotoxic response to alkylating agents (tumor cells): enhancement in the cytotoxic response to chemotherapeutic alkylating agents
- potency as AGT depleter (AGT): more potent
- AGT depletion (shown previously) (AGT; literature): effective in depleting AGT; also recorded: dramatic and rapid depletion of cellular alkyltransferase activity
- sensitivity to chloroethylating and methylating anti-tumor drugs (melanoma cells (M19-mel)): increase the sensitivity
- sensitivity to chloroethylating and methylating anti-tumor drugs [4]: increase the sensitivity
- therapeutic effectiveness of chloroethylating nitrosoureas after pretreatment (human tumor xenografts): dramatic increase in the therapeutic effectiveness of chloroethylating nitrosoureas in vivo
- therapeutic effect, lower pretreatment dose of O^6-benzylguanine ([5]; with BCNU): significantly lesser therapeutic effect
- therapeutic effect, BCNU 1 hour after O^6-benzylguanine [5]: significantly greater effect than was seen with either the same or a higher dose of BCNU alone
- therapeutic effect, BCNU delayed until 36 hours after O^6-benzylguanine [5]: greatly reduced effect that was not significantly different than that produced by control or BCNU alone
- toxicity of BCNU after O^6-benzylguanine pretreatment [6]: increased the toxicity of BCNU significantly
- AGT activity of the tumors [7]: undetectable
- time to undetectable tumor AGT activity [7]: ≤ 1 h
- time until which tumor AGT remained depleted [7]: 36 h
